Data published in patent publication US20120101083A1, “S1P1 AGONISTS COMPRISING A BICYCLIC N-CONTAINING RING” (GLAXO GROUP LIMITED, priority 2009, published 2012).
Structures can show the parent of a compound that is named as a salt.

Legend:
[1] = target: T1, S1P1 receptor (S1P1 expressing RH7777 membranes) (Homo sapiens, UniProt P21453); assay: S1P1 GTPγS assay; type: biochemical; conditions: tested in one of the above S1P1 assays (two GTPγS formats)
T1 construct: expressed in transfected cells; host or cells: RH7777 cells (membranes)
Method in brief: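 Membranes from RH7777 cells expressing human S1P1 (1.5 μg/well) precoupled 30 min on ice to WGA SPA beads in 20 mM HEPES pH 7.4, 10 mM MgCl2, 100 mM NaCl, with 10 μM GDP and 90 μg/ml saponin. [35S]-GTPγS 0.5 nM final added with compound; SPA signal read immediately.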

[2] = target: T2, S1P1 (PathHunter CHO-K1 EDG1 β-Arrestin cell line) (Homo sapiens, UniProt P21453); assay: S1P-1 β-Arrestin recruitment assay; type: cell-based; conditions: CHO-K1 EDG1 β-Arrestin cells, chemi-luminescence
T2 construct: host or cells: PathHunter CHO-K1 EDG1 β-Arrestin cell line
Description: S1P-1 β-Arrestin Recruitment Assay
β-Arrestin recruitment assays were carried out using the PathHunter CHO-K1 EDG1
β-Arrestin cell line (DiscoveRx Corporation) in a chemi-luminescence detection assay. This cell line stably expresses β-Arrestin 2 and S1P1 fused to complementing portions of β-galactosidase (‘EA’ and ‘pro-link’, respectively) which associate upon Arrestin recruitment to form functional β-galactosidase enzyme.
Cells were grown to 80% confluency in Growth Medium (F12 nutrient HAMS supplemented with 10% heat-inactivated USA FBS, 1% L-glutamax, 800 μg/ml Geneticin and 300 μg/ml Hygromycin). Cells were harvested from the flask using Enzyme Free Cell Dissociation Buffer (Gibco) and washed from flasks with Optimem solution (Gibco). Cells were then centrifuged at 1000 rpm for 2-3 min and resuspended in Assay Buffer (Prepared from Sigma kit H1387 supplemented with 20 ml/L HEPES, 4.7 ml/L NaHCO3, 0.1% pluronic acid F-68 solution, 0.1% BSA and adjusted to pH 7.4 using sodium hydroxide at 1×10^6 cells/ml. Cells were dispensed into assay plates containing compounds (100n1/well of a solution of test compound in 100% DMSO) at 1×10^4 cells/well and incubated at 37° C./5% CO2 for 90 min followed by 15 min at room temperature. 5 μl detection mix (1 part Galacton Star, 5 parts Emerald II, 19 parts Assay Buffer; DiscoveRx) were added per well and the plates incubated at room temperature for 60 min. Luminescence was quantified using a Viewlux plate reader.

T1 sequence (P21453 whole entry): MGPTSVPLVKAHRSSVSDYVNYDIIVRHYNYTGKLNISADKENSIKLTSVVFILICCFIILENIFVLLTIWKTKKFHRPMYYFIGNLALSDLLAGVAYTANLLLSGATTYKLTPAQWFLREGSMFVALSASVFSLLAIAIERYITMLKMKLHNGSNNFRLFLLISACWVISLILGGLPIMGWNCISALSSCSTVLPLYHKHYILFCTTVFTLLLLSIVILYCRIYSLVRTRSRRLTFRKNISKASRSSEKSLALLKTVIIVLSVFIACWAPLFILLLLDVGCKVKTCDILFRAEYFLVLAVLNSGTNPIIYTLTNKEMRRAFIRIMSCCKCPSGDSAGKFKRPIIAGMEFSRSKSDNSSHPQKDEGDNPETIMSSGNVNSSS
T2 sequence (P21453 whole entry): as above
T2 sequence (P32121 whole entry partner): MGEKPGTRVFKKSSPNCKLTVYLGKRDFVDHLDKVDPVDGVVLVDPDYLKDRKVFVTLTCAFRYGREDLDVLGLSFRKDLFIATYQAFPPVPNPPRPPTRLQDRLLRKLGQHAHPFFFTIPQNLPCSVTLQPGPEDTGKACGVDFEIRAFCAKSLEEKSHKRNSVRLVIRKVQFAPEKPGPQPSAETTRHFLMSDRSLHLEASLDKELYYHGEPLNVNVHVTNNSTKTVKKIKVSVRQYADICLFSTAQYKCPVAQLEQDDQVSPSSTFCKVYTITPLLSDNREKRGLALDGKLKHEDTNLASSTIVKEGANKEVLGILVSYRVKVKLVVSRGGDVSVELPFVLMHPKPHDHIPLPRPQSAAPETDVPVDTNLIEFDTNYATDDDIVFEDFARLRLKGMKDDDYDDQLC

| SMILES | EC50 [1] [nM] | EC50 [2] [nM] |
| --- | --- | --- |
| CC(C)Nc1ncc(-c2nc(-c3ccc4c(c3)CCN(C(=O)CN)CC4)no2)cc1C#N [Example 112, 5-[3-(3-glycyl-2,3,4,5-tetrahydro-1H-3-benzazepin-7-yl)-1,2,4-oxadiazol-5-yl]-2-[(1-methylethyl)amino]-3-pyridinecarbonitrile] | ≤ 1000 | ≤ 100 |
| CC(C)Oc1ccc(-c2nc(-c3cccc4c3CCN(C(=O)CN)C4)no2)cc1C#N [Example 87, 5-[3-(2-glycyl-1,2,3,4-tetrahydro-5-isoquinolinyl)-1,2,4-oxadiazol-5-yl]-2-[(1-methylethyl)oxy]benzonitrile hydrochloride] | ≤ 10 | ≤ 10 |
| CC(C)Oc1ccc(-c2nc(-c3ccc4c(c3)CCN(CC(=O)NC(CO)CO)CC4)no2)cc1C#N [Example 195, 2-[7-(5-{3-cyano-4-[(1-methylethyl)oxy]phenyl}-1,2,4-oxadiazol-3-yl)-1,2,4,5-tetrahydro-3H-3-benzazepin-3-yl]-N-[2-hydroxy-1-(hydroxymethyl)ethyl]acetamide hydrochloride] | ≤ 100 | ≤ 10 |
| CC(C)Oc1ccc(-c2nc(-c3cccc4c3CCN(C(=O)CCN)C4)no2)cc1C#N [Example 88, 5-[3-(2-β-alanyl-1,2,3,4-tetrahydro-5-isoquinolinyl)-1,2,4-oxadiazol-5-yl]-2-[(1-methylethyl)oxy]benzonitrile hydrochloride] |  | ≤ 100 |
| CC(C)Oc1ccc(-c2nc(-c3ccc4c(c3)CCN(C[C@@H](O)C(=O)NCCO)CC4)no2)cc1C#N [Example 164, (2R)-3-[7-(5-{3-cyano-4-[(1-methylethyl)oxy]phenyl}-1,2,4-oxadiazol-3-yl)-1,2,4,5-tetrahydro-3H-3-benzazepin-3-yl]-2-hydroxy-N-(2-hydroxyethyl)propanamide hydrochloride] |  | ≤ 10 |
| CC(C)Oc1ccc(-c2nnc(-c3ccc4c(c3)CCN(C(=O)CNCCO)CC4)s2)cc1C#N [Example 200, 5-(5-{3-[N-(2-hydroxyethyl)glycyl]-2,3,4,5-tetrahydro-1H-3-benzazepin-7-yl}-1,3,4-thiadiazol-2-yl)-2-[(1-methylethyl)oxy]benzonitrile] |  | ≤ 10 |
| COCCN1CCc2c(cccc2-c2nnc(-c3ccc(OC(C)C)c(C#N)c3)s2)C1 [Example 37, 2-[(1-Methylethyl)oxy]-5-(5-{2-[2-(methyloxy)ethyl]-1,2,3,4-tetrahydro-5-isoquinolinyl}-1,3,4-thiadiazol-2-yl)benzonitrile] |  | ≤ 100 |
| Cc1c(-c2noc(-c3ccc(OC(C)C)c(C#N)c3)n2)ccc2c1CCN(C(=O)CN[C@@H](C)CO)C2 [Example 130, 5-[3-(2-{N-[(1S)-2-hydroxy-1-methylethyl]glycyl}-5-methyl-1,2,3,4-tetrahydro-6-isoquinolinyl)-1,2,4-oxadiazol-5-yl]-2-[(1-methylethyl)oxy]benzonitrile] |  | ≤ 10 |
| CC(C)Oc1ccc(-c2nc(-c3ccc4c(c3)CCN(CC(=O)NCCCO)CC4)no2)cc1C#N [Example 157, 2-[7-(5-{3-cyano-4-[(1-methylethyl)oxy]phenyl}-1,2,4-oxadiazol-3-yl)-1,2,4,5-tetrahydro-3H-3-benzazepin-3-yl]-N-(3-hydroxypropyl)acetamide] |  | ≤ 10 |
| Cc1c(-c2noc(-c3ccc(OC(C)C)c(C#N)c3)n2)ccc2c1CCN(C(=O)CN[C@H](C)CO)C2 [Example 128] |  | ≤ 10 |
| Cc1c(-c2noc(-c3ccc(OC(C)C)c(Cl)c3)n2)ccc2c1CCN(CC(=O)NC(CO)CO)C2 [Example 193, 2-[6-(5-{3-chloro-4-[(1-methylethyl)oxy]phenyl}-1,2,4-oxadiazol-3-yl)-5-methyl-3,4-dihydro-2(1H)-isoquinolinyl]-N-[2-hydroxy-1-(hydroxymethyl)ethyl]acetamide hydrochloride] |  | ≤ 10 |
| Cc1c(-c2nnc(-c3ccc(OC(C)C)c(Cl)c3)s2)ccc2c1CCN(C(CO)CO)C2 [Example 203, 2-[6-(5-{3-chloro-4-[(1-methylethyl)oxy]phenyl}-1,3,4-thiadiazol-2-yl)-5-methyl-3,4-dihydro-2(1H)-isoquinolinyl]-1,3-propanediol hydrochloride] |  | ≤ 100 |
| Cc1c(-c2noc(-c3cnc(OC(C)C)c(Cl)c3)n2)ccc2c1CCN(C(CO)CO)C2 [Example 144, 2-[6-(5-{5-chloro-6-[(1-methylethyl)oxy]-3-pyridinyl}-1,2,4-oxadiazol-3-yl)-5-methyl-3,4-dihydro-2(1H)-isoquinolinyl]-1,3-propanediol] |  | ≤ 100 |
| CC(C)Oc1ccc(-c2nc(-c3ccc4c(c3)CCN(C[C@@H](O)C(=O)N[C@H](C)CO)CC4)no2)cc1C#N [Example 165, (2R)-3-[7-(5-{3-cyano-4-[(1-methylethyl)oxy]phenyl}-1,2,4-oxadiazol-3-yl)-1,2,4,5-tetrahydro-3H-3-benzazepin-3-yl]-2-hydroxy-N-(1R)-2-hydroxy-1-methylethyl]propanamide hydrochloride] |  | ≤ 10 |
| CC(C)Nc1ncc(-c2nc(-c3ccc4c(c3)CCN(C(CO)CO)CC4)no2)cc1C#N [Example 108, 5-(3-{3-[2-hydroxy-1-(hydroxymethyl)ethyl]-2,3,4,5-tetrahydro-1H-3-benzazepin-7-yl}-1,2,4-oxadiazol-5-yl)-2-[(1-methylethyl)amino]-3-pyridinecarbonitrile hydrochloride] |  | ≤ 100 |
| N#Cc1cc(-c2nc(-c3ccc4c(c3)CCN(C(=O)CN)CC4)no2)ccc1OCC(F)(F)F [Example 191, 5-[3-(3-glycyl-2,3,4,5-tetrahydro-1H-3-benzazepin-7-yl)-1,2,4-oxadiazol-5-yl]-2-[(2,2,2-trifluoroethyl)oxy]benzonitrile hydrochloride] |  | ≤ 10 |

Continued, values first:

| EC50 [1] [nM] | EC50 [2] [nM] | SMILES |
| --- | --- | --- |
| ≤ 10 | ≤ 10 | CC(C)Oc1ccc(-c2nc(-c3cccc4c3CCN(CC(O)CO)C4)no2)cc1C#N (centres unmarked) [Example 76, 5-{3-[2-(2,3-dihydroxypropyl)-1,2,3,4-tetrahydro-5-isoquinolinyl]-1,2,4-oxadiazol-5-yl}-2-[(1-methylethyl)oxy]benzonitrile] |
| ≤ 100 | ≤ 10 | Cc1c(-c2nnc(-c3ccc(OC(C)C)c(C#N)c3)s2)ccc2c1CCN(CCC(N)=O)C2 [Example 10, 3-[6-(5-{3-Cyano-4-[(1-methylethyl)oxy]phenyl}-1,3,4-thiadiazol-2-yl)-5-methyl-3,4-dihydro-2(1H)-isoquinolinyl]propanamide] |
|  | ≤ 100 | CC(C)Oc1ccc(-c2nc(-c3ccc4c(c3)CCN(C(C)C(=O)N[C@H](C)CO)CC4)no2)cc1C#N (stereo partly drawn) [Example 162, 2-[7-(5-{3-cyano-4-[(1-methylethyl)oxy]phenyl}-1,2,4-oxadiazol-3-yl)-1,2,4,5-tetrahydro-3H-3-benzazepin-3-yl]-N-(1R)-2-hydroxy-1-methylethyl]propanamide hydrochloride] |
|  | ≤ 10 | Cc1c(-c2noc(-c3ccc(OC(C)C)c(C#N)c3)n2)ccc2c1CCN(C(=O)CNC(CO)CO)C2 [Example 127, 5-[3-(2-{N-[2-hydroxy-1-(hydroxymethyl)ethyl]glycyl}-5-methyl-1,2,3,4-tetrahydro-6-isoquinolinyl)-1,2,4-oxadiazol-5-yl]-2-[(1-methylethyl)oxy]benzonitrile hydrochloride] |
|  | ≤ 10 | Cc1c(-c2noc(-c3ccc(OC(C)C)c(Cl)c3)n2)ccc2c1CCN(CC(=O)NCCO)C2 [Example 136, 2-[6-(5-{3-chloro-4-[(1-methylethyl)oxy]phenyl}-1,2,4-oxadiazol-3-yl)-5-methyl-3,4-dihydro-2(1H)-isoquinolinyl]-N-(2-hydroxyethyl)acetamide hydrochloride] |
|  | ≤ 100 | CC(C)Oc1ccc(-c2nc(-c3ccc4c(c3)CCN(C(C)C(=O)NCCO)CC4)no2)cc1C#N (centres unmarked) [Example 161, 2-[7-(5-{3-cyano-4-[(1-methylethyl)oxy]phenyl}-1,2,4-oxadiazol-3-yl)-1,2,4,5-tetrahydro-3H-3-benzazepin-3-yl]-N-(2-hydroxyethyl)propanamide hydrochloride] |
|  | ≤ 10 | Cc1c(-c2noc(-c3ccc(OC(C)C)c(C#N)c3)n2)ccc2c1CCN(C(=O)CNCCO)C2 [Example 131, formic acid-5-(3-{2-[N-(2-hydroxyethyl)glycyl]-5-methyl-1,2,3,4-tetrahydro-6-isoquinolinyl}-1,2,4-oxadiazol-5-yl)-2-[(1-methylethyl)oxy]benzonitrile (1:1)] |
|  | ≤ 10 | Cc1c(-c2noc(-c3ccc(OC(C)C)c(Cl)c3)n2)ccc2c1CCN(CC(=O)NC[C@H](O)CO)C2 [Example 192, 2-[6-(5-{3-chloro-4-[(1-methylethyl)oxy]phenyl}-1,2,4-oxadiazol-3-yl)-5-methyl-3,4-dihydro-2(1H)-isoquinolinyl]-N-[(2S)-2,3-dihydroxypropyl]acetamide hydrochloride] |
